From patent US9670139B2, “Telomerase activating compounds and methods of use thereof” (BEN-GURION UNIVERSITY OF THE NEGEV RESEARCH AND DEVELOPMENT …, priority 2007, dated 2017) come the findings set out here.

One series deals with embryos. Kind of series: Prevention of camptothecin damage to embryo development in rats. As to conditions: embryos at days 14-15. In kind it is in vivo, rat. Here is the method:
The ability of compounds of the present invention to prevent the damaging effects of drugs on embryonic development was examined in rats. Female rats were treated with camptothecin (CPT) (5 mg/kg), an anti-cancer drug, and then injected with Compound 68 (6 mg/kg) or vehicle (0.1%). Embryos were removed at days 14-15 of pregnancy and examined for damage.

The test system of the next series is C. elegans. Put plainly: Lifespan extension of nematodes (C. elegans). In kind it is in vivo. As to conditions: for Lifes pan ext. %: nematodes grown with compound at 50 micromolar; for Lifes pan ext. % / Lifespan %: mean lifespan versus control; for Lifespan % / Lifespan extension (%): 50 micromolar; for Lifespan extension (%): Table 2, versus untreated controls. As to the method:
Nematodes (C. elegans) were administered tri-phenyl telomerase-activating compounds presented in the following tables, and telomerase activity and/or expression was measured in terms of nematode lifespan extension. Nematodes were grown with the activators at 50 micromolar concentration, and the mean, maximum and half-life for Compound 68 and Compound 77, two representative molecules, was measured versus that of the control (FIG. 8). Values represent mean lifespan.
Survival of the C. elegans, a nematode that normally survives for 12-14 days, represents an acceptable model for studying life extension. Nematodes were administered tri-phenyl telomerase-activating compounds and their effect on the nematode lifespan extension was determined. Nematodes were grown with the activators at a concentration of 50 micromolar, and mean, maximum and half-life were measured in comparison with untreated controls. Lifespan increased by 13-43% (Table 2), and the median lifespan increased approximately 2-fold (from 12 days to 22 days, as shown in FIG. 8).

Series [1] concerns telomerase. Put plainly: Activation of telomerase expression in rat endometrial cells after subcutaneous injection. In kind it is in vivo. As to conditions: 6 mg/kg subcutaneously, 24 h. Here is the method:
Female rats in diestrus (the stage at which the epithelial layer in the rat endometrium undergoes degradation) were injected subcutaneously with 6 mg/kg of Compound 68, or with a vehicle. The rats were sacrificed 24 h later and endometrial sections were prepared from the uterine horns of treated and untreated rats and analyzed by histological procedures and by immunohistochemical staining Endometrial slices were stained by hematoxylin-eosin. […] In addition, morphologically, the endometrial tissue resembled the structure of the proliferating stages (proestrus and estrus) (FIG. 9A,B). Activation of telomerase expression in the endometrial cells of treated rats was examined by immunohistochemistry with anti-telomerase antibody (FIG. 9C-F). […] In addition, telomerase activity was measured in nuclear extracts derived from the endometrium of the various treatment groups. […] In some embodiments of the invention, the data support a role for the treatment of endometriosis with the compounds of this invention.

For another series, the system named is telomerase protein. Put plainly: Western blot of telomerase protein level in treated glioblastoma cells. In kind it is cell-based, human. As to conditions: 1 μM single dose. Here is the method: The effect of compounds of the present invention on the level of telomerase protein and of long-term treatment of a single dose of Compound 68 on telomerase was tested by exposing cells for various intervals (3-24 h) to 1 μM of the compound and detecting telomerase protein level by western blot analysis with anti-telomerase antibody. […] A time-dependent increase in telomerase was observed, with activation peaking at […] of treatment, and then gradually decreasing.

The subject of another series is telomerase mRNA. Kind of series: Northern blot of telomerase mRNA with hTERT probe. In kind it is cell-based, human. As to the method:
Experiments were also performed to determine the effect of compounds of the present invention on the telomerase mRNA level (including the full and spliced variant telo-mRNAs). Cells were treated with a single dose of […] Compound 68 for various intervals (1-24 h). Total RNA extracts were prepared, and equal RNA concentrations were analyzed by northern blotting with a specific hTERT probe. […] The increased expression of telomerase was specific since no effect on GAPDH mRNA was observed (lower panel).

The target in series [2] is telomerase (Homo sapiens, UniProt O14746). Put plainly: Telomerase activity in RPE cells (quantitative telomerase detection kit, real time PCR). In kind it is cell-based. On the set-up: endogenous in cells; host or cells: human retinal pigmented epithelial (RPE) cells. As to conditions: FIG. 7B. The text has this:
FIG. 7: A. The effect of compounds of the present invention on human retinal pigmented epithelial cells under oxidative stress. B. The effect of compounds on telomerase activity in RPE cells (measured by a quantitative telomerase detection kit-real time PCR).
Chronic exposure of human retinal pigmented epithelial (RPE) cells to oxidative stress predisposes them to the development of age-related macular degeneration (AMD). Human RPE cells were exposed to oxidative stress by treatment with H2O2 (1 mM) for 24 hours, and H2O2 (0.5 mM) for another 24 hours. The cells were then treated daily for two days with the indicated compounds in the absence of H2O2. Increased cell growth was observed as a consequence of treatment with the compounds (FIG. 7A). Telomerase activity was enhanced in RPE cells treated with compounds 68 and 79 by 30- and 50-fold, respectively (FIG. 7B).
On the technique in general: In qPCR the cycle at which signal appears reflects the starting amount.

Series [3] in a line: Solubility noted at synthesis. In kind it is physicochemical.

The structures appear in SMILES notation. Numbered stars: 1 amine (or outer) side, 2 acyl side, 3 side chain; on linkers, the order of the positions; unused ones are H or OH. Bridge positions count the residues as written; N and C are the ends. Square brackets hold non-standard residues; d marks the D form. Peptide text beside a SMILES is read from it. I, II: the chains in the order shown. Actinocin(9to1) = Cc1c2oc3c(C)ccc(C(=O)[*:1])c3nc-2c(C(=O)[*:2])c(N)c1=O; NMeV = CN[C@H](C(=O)O)C(C)C; Sar = CNCC(=O)O

Sequence of telomerase (Homo sapiens, UniProt O14746) (O14746 whole entry): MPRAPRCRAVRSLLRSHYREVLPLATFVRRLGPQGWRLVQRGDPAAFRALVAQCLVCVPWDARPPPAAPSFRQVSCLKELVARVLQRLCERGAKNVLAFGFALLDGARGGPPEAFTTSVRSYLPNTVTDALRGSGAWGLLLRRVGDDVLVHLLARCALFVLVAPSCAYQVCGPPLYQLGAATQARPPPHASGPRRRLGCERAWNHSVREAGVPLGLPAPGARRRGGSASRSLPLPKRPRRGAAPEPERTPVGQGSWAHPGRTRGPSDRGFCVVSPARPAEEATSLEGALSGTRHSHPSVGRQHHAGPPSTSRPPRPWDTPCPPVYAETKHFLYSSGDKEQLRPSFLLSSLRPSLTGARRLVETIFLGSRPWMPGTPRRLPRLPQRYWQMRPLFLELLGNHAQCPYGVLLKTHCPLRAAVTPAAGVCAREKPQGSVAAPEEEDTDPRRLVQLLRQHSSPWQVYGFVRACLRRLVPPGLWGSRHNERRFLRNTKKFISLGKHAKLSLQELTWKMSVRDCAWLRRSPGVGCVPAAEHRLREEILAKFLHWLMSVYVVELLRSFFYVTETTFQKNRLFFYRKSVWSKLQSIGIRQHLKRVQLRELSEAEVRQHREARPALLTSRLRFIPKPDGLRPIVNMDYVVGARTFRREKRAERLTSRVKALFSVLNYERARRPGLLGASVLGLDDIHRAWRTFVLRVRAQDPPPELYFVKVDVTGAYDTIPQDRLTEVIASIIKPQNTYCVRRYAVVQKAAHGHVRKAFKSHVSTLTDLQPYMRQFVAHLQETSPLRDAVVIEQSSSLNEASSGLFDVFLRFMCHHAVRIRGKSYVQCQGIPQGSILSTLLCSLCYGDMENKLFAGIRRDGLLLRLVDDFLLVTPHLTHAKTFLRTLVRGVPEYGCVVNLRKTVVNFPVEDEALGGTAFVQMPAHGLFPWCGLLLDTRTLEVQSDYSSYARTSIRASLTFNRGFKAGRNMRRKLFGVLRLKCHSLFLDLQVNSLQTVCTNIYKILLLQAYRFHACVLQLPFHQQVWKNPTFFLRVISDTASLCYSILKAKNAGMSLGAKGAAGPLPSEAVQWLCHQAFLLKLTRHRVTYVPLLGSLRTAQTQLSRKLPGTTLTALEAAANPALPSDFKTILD

Turning to `CC[C@@]1(O)C(=O)OCc2c1cc1n(c2=O)Cc2cc3ccccc3nc2-1` [CPT, camptothecin, reference compound], in the series on embryos (CPT 5 mg/kg plus vehicle), the “embryo development after CPT only” value is recorded as “evidence of abnormal development”.

As to `CC(c1ccc(O)cc1)(c1ccc(O)cc1)c1ccc(O)cc1` [Compound 1], the “Lifes pan ext. %” value with C. elegans amounted to 30%.

Consider `COc1ccc(C(C)(c2ccc(OC)cc2)c2ccc(OC)cc2)cc1` [Compound 5], for which the “Lifes pan ext. %” value in the series with C. elegans stood at 12%.

For the compound `Cc1ccc(C(C)(c2ccccc2)c2ccccc2)cc1` [Compound 10], the “Lifes pan ext. %” value in the series with C. elegans was −1%.

Regarding `Cc1ccc(C(C)(c2ccc(C)cc2)c2ccc(C)cc2)cc1` [Compound 22], in the series with C. elegans, the “Lifes pan ext. %” value stood at 21%.

In the case of `COc1ccc(C(C)(c2ccc(-c3cccc4ccccc34)cc2)c2ccc(C3c4ccccc4-c4ccccc43)cc2)cc1` (centres unmarked) [Compound 31], the “Lifes pan ext. %” value with C. elegans is reported as 23%.

On to `CC(c1ccccc1)(c1ccc(-c2cccc3ccccc23)cc1)c1ccc(C2c3ccccc3Oc3ccccc32)cc1` (centres unmarked) [Compound 33], for which the “Lifes pan ext. %” value in the series on C. elegans is −26%.

`CCOC(=O)COc1ccc(C(C)(c2ccc(OCC(=O)OCC)cc2)c2ccc(OCC(=O)OCC)cc2)cc1` [Compound 42]: the “Lifes pan ext. %” value in the series on C. elegans is given as −7%.

As for `CC(c1ccccc1)(c1ccccc1)c1ccccc1` [Compound 49], the “Lifes pan ext. %” value with C. elegans came out at 16%.

Consider `COc1ccc(C(c2ccc(-c3c[nH]c4ccccc34)cc2)c2ccc(-c3c[nH]c4ccccc34)cc2)cc1` [Compound 50], for which the “Lifes pan ext. %” value with C. elegans is 4%.

For `CC(c1ccc(O)cc1)(c1ccc(O)cc1)c1ccc(-c2ccncc2)cc1` [Compound 53], the “Lifes pan ext. %” value in the series on C. elegans amounted to 13%.

As for `CC(c1ccc(O)cc1)(c1ccc(O)cc1)c1ccc(-c2cccnc2)cc1` [Compound 54], the “Lifes pan ext. %” value in the series with C. elegans amounted to 15%.

For the compound `Oc1ccc(P(c2ccc(O)cc2)c2ccc(O)cc2)cc1` [Compound 60], the Lifespan % in the series with C. elegans (table of scaffold drawing 35) is −2%.

With `O=P(c1ccc(O)cc1)(c1ccc(O)cc1)c1ccc(O)cc1` [Compound 61], in the series with C. elegans, the “Lifespan extension (%)” value is 30%. In addition, the Lifespan % with C. elegans (table of scaffold drawing 35) is reported as 30%.

With `COc1ccc(P(c2ccc(OC)cc2)c2ccc(OC)cc2)cc1` [Compound 62], the “Lifespan extension (%)” value in the series with C. elegans is listed as 29%. Besides, in the series with C. elegans (table of scaffold drawing 35), the Lifespan % came to 29%.

Take `COc1ccc(P(=O)(c2ccc(OC)cc2)c2ccc(OC)cc2)cc1` [Compound 63]: in the series with C. elegans (table of scaffold drawing 35), the Lifespan % is listed as 0%.

On to `c1ccc(P(c2ccccc2)c2ccccc2)cc1` [Compound 64], for which the Lifespan % in the series with C. elegans (table of scaffold drawing 35) stood at 19%.

Turning to `Cc1ccc(P(c2ccc(C)cc2)c2ccc(C)cc2)cc1` [Compound 65], in the series on C. elegans (table of scaffold drawing 35), the Lifespan % was 42%.

With `Brc1ccc(N(c2ccc(Br)cc2)c2ccc(Br)cc2)cc1` [Compound 66], in the series with C. elegans (table of scaffold drawing 35), the Lifespan % amounted to 19%.

For `CC(c1cc(Br)c(O)c(Br)c1)(c1cc(Br)c(O)c(Br)c1)c1cc(Br)c(O)c(Br)c1` [Compound 68, 1,1,1-tris(4-hydroxy-3,5-dibromo-phenyl)-ethane], in the series with telomerase [1], the “staining of telomerase in the endometrial tissue (immunohistochemistry)” value was “significant increase”. Moreover, the “degradation of the endometrial epithelial layer” value with telomerase [1] (female rats in diestrus) is recorded as “prevented the degradation of the endometrial epithelial layer”. Moreover, the “Lifespan extension (%)” value in the series with C. elegans is on record as 13%. In addition, the Lifespan % in the series with C. elegans (table of scaffold drawing 36) worked out at 13%. The “time of peak telomerase activation” value in the series with telomerase protein lay within 1 to 3 h. Further, the telomerase protein level entry in the series with telomerase protein (3-24 h, western blot) was “increased telomerase protein level”. Further, the “level of telomerase compared to vehicle-treated cells after 24 h” value with telomerase protein (24 h) was “only slightly higher”. Also, the “level of telomerase full-length and splice variant mRNA, fold of control” value in the series with telomerase mRNA (single dose of 1 mM, 1-24 h) was “up to 4.5 fold”. Besides, in the series on embryos (CPT 5 mg/kg then compound 6 mg/kg), the “embryo development after CPT plus compound” value is reported as “developed normally”. Besides, at telomerase [2], the “enhancement of telomerase activity in RPE cells” value is on record as 30 fold.

Take `CC(c1ccc(O)c(Br)c1)(c1ccc(O)c(Br)c1)c1ccc(O)c(Br)c1` [Compound 69]: in the series with C. elegans (table of scaffold drawing 36), the Lifespan % is −5%.

For the compound `COc1c(Br)cc(C(C)(c2cc(Br)c(OC)c(Br)c2)c2cc(Br)c(OC)c(Br)c2)cc1Br` [Compound 70], in the series on C. elegans (table of scaffold drawing 36), the Lifespan % is 41%.

`CC(c1ccc(O)c([N+](=O)[O-])c1)(c1ccc(O)c([N+](=O)[O-])c1)c1ccc(O)c([N+](=O)[O-])c1` [Compound 71]: the Lifespan % in the series with C. elegans (table of scaffold drawing 36) came to 8%.

In the case of `COc1ccc(C(C)(c2ccc(OC)c([N+](=O)[O-])c2)c2ccc(OC)c([N+](=O)[O-])c2)cc1[N+](=O)[O-]` [Compound 72], in the series with C. elegans (table of scaffold drawing 36), the Lifespan % is 4%.

Consider `COc1c(I)cc(C(C)(c2cc(I)c(OC)c(I)c2)c2cc(I)c(OC)c(I)c2)cc1I` [Compound 73], for which, in the series on C. elegans (table of scaffold drawing 36), the Lifespan % is given as −7%.

With `CN1CCN(Cc2cc(C(C)(c3cc(CN4CCN(C)CC4)c(O)c(CN4CCN(C)CC4)c3)c3cc(CN4CCN(C)CC4)c(O)c(CN4CCN(C)CC4)c3)cc(CN3CCN(C)CC3)c2O)CC1` [Compound 78], the “Lifespan extension (%)” value in the series with C. elegans worked out at 36%. In the series with C. elegans (table of scaffold drawing 36), the Lifespan % was 36%. Further, the solubility in ethanol result in series [3] (ethanol) is on record as “Soluble”. For the same compound, in series [3] (water), the solubility in water result is “very good solubility”.

With `Cc1c2oc3c(C)ccc(C(=O)N[C@@H]4C(=O)N[C@H](C(C)C)C(=O)N5CCC[C@H]5C(=O)N(C)CC(=O)N(C)[C@@H](C(C)C)C(=O)O[C@@H]4C)c3nc-2c(C(=O)N[C@@H]2C(=O)N[C@H](C(C)C)C(=O)N3CCC[C@H]3C(=O)N(C)CC(=O)N(C)[C@@H](C(C)C)C(=O)O[C@@H]2C)c(N)c1=O` [actinomycin D, reference compound] (I: T[dV]P[Sar][NMeV] / II: T[dV]P[Sar][NMeV]; ester I:1-I:C, II:1-II:C; linker I:N-II:N via Actinocin(9to1)), the “effect of addition during compound treatment on activation of telomerase expression” value with telomerase mRNA (added for 3 h during treatment with Compound 68) is reported as “abolished the activation of telomerase expression”.
